# According to patent US5405839A, “Vitamin B12 derivative, preparation process thereof, and use thereof” (Teijin Limited, priority 1989, dated 1995):
# Tests used:
# diol dehydrase [1] = molecular target: T1, diol dehydrase (Klebsiella oxytoca, UniProt Q59470+Q59471+Q59472); assay: Inhibition constant (Ki) of vitamin B12 derivative against vitamin B12 coenzyme, Lineweaver-Burk plot; assay type: biochemical; conditions: against varied adenosylcobalamin
# T1 construct: (alpha beta gamma)2 hexamer
# T1 sequence (Q59470 1-554): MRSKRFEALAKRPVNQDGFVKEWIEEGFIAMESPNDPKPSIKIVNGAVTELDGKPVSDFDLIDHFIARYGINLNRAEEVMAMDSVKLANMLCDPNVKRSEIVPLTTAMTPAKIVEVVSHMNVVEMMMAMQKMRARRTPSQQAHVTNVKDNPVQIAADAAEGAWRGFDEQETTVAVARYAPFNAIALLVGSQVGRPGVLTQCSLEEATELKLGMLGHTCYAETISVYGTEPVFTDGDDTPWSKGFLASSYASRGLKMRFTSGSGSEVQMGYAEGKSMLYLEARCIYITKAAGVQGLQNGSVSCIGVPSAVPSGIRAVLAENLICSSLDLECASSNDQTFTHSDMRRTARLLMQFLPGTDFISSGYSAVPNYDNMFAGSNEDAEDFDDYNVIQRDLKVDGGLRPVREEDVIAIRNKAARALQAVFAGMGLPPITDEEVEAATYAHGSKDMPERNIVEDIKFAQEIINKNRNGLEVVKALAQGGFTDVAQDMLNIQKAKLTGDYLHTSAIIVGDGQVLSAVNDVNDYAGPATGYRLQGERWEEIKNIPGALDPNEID
# T1 sequence (Q59471 1-224): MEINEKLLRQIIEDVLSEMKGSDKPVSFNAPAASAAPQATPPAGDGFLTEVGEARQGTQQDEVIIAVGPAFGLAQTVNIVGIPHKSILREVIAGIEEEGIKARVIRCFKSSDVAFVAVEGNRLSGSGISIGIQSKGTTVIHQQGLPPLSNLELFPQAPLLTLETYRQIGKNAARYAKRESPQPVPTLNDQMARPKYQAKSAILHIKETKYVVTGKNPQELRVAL
# T1 sequence (Q59472 1-173): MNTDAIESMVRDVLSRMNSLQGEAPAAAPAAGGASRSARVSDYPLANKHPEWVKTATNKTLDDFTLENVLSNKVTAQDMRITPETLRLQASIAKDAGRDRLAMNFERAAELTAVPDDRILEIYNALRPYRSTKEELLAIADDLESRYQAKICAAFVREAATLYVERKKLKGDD
# Experimental: (§1) As the enzyme, diol dehydrase was employed. […] Diol dehydrase was highly purified from Klebsiella pneumoniae ATCC 8724 according to the method of Poznanskaya (Arch. Biochem. Biophys., vol. 194, p. 379-386, 1979) and adjusted to a solution of 0.3 Unit/ml with 0.05 M potassium phosphate buffer (pH 8.0). As the substrate of this enzyme, a 1 M aqueous 1,2-propanediol solution was employed.
# (§2) In an ice-water bath, 0.1 ml of the substrate solution, 0.1 ml of 0.5 M aqueous potassium chloride solution, 0.1 ml of diol dehydrase solution, and 0.6 ml of 0.05 M potassium phosphate buffer (pH 8.0) were mixed, and to the mixture were added, in the dark, 0.1 ml of 0.2 mM vitamin B12 coenzyme (adenosylcobalamin), vitamin B12 (cyanocobalamin) or each vitamin B12 derivative prepared in Examples 1 to 10. After the mixture was incubated in the dark at 37° C. for 10 minutes, 1 ml of 0.1M potassium citrate buffer (pH 3.6) was added to stop the enzyme reaction, and then 0.5 ml of 0.1% aqueous 3-methyl-2-benzothianolinonehydrazone was added, followed by a continuation of the incubation at 37° C. for 15 minutes. To the mixture was added 1 ml of water, and the absorbance at 305 nm was measured by a Shimazu Double-beam Spectrophotometer Model UV-140-02 Model and the coenzyme activity (kcat) was calculated.
# Namely, in the method 1) in Example 11, by adding adequately varied concentration of the vitamin B12 coenzyme (adenosylcobalamin) to a fixed concentration of each vitamin B12 derivative, the enzyme activity was respectively assayed and the inhibition constant (Ki) was determined by the Lineweaver-Burk plot. The inhibitory activity is stronger when the Ki is smaller.
# diol dehydrase [2] = molecular target: T1, diol dehydrase; assay: Assay of coenzyme activity (kcat) with diol dehydrase; assay type: biochemical, Klebsiella pneumoniae ATCC 8724; conditions: for coenzyme activity (in words): diol dehydrase; for Kcat (coenzyme activity): diol dehydrase, 1,2-propanediol substrate, 37° C., pH 8.0; method 1) or 2); for Kcat, activity relative to the vitamin B12 coenzyme (adenosylcobalamin): relative to adenosylcobalamin = 100
# Experimental: The coenzyme activities of vitamin B12 derivatives prepared in Examples 1 to 10 were assayed according to the two methods shown below.
# 1) Assay of coenzyme activity by using 3-methyl-2-benzothiazolinonehydrazone
# The assay was carried out according to the method of Toraya et al. (J. Biol. Chem., vol. 252, p. 963-970, 1977).
# as §1, §2
# 2) Assay of coenzyme activity using alcohol dehydrogenase and reduced nicotinamide adenine dinucleotide
# The assay was carried out according to the method of Toraya et al. (Biochemistry, vol. 18, p. 417-426, 1979).
# The diol dehydrase employed was diluted with 0.05 M potassium phosphate buffer (pH 8.0) to 0.15 Unit/ml, and 1M aqueous propanediol was used as the substrate solution. By using a 0.05 M potassium phosphate buffer (pH 8.0), 0.5 mg/ml of alcohol dehydrogenase and a 2 mM reduced nicotinamide adenine dinucleotide were prepared. To a mixture of 0.1 ml of the substrate solution, 0.1 ml of the alcohol dehydrogenase solution, 0.1 ml of the reduced nicotinamide adenine dinucleotide solution, and 0.5 ml of the 0.05 M potassium phosphate buffer (pH 8.0) was added 0.1 ml of the diol dehydrase solution. After the mixture was incubated at 37° C. for 5 minutes, there were added, in the dark, 0.1 ml of 0.2 mM vitamin B12 coenzyme (adenosylcobalamin), vitamin B12 (cyanocobalamin) or each vitamin B12 derivative prepared in Examples 1 to 10, and the coenzyme activity (kcat) was calculated by continuously monitoring the decrease in absorbance at 340 nm, by a Union Spectrophotometer SM-401.
# The coenzyme activity is higher when the kcat is larger. The activity relative to the vitamin B12 coenzyme (adenosylcobalamin) is also shown in % in Table 1.
# diol dehydrase [3] = molecular target: T1, diol dehydrase; assay: Michaelis constant (Km) of vitamin B12 derivative, Lineweaver-Burk plot; assay type: biochemical, Klebsiella pneumoniae ATCC 8724
# Experimental: as §1, §2
# Namely, in the method 1) in Example 11, the respective enzyme activities were assayed by suitably varying the concentration of the vitamin B12 derivative, and Michaelis constant (km) was determined by the Lineweaver Burk plot. The affinity (binding ability) for the enzyme is higher when the Km is smaller.
# [4] = test system: mouse leukemia L1210 cells; assay: Viability of cultured L1210 cells on day 9 by Trypan blue staining; assay type: cell-based; conditions: day 9, MTX 200 nM only; 12960 min
# Experimental: The mouse leukemia L1210 cells employed for this experiment were grown and maintained intraperitoneally in DBA mice, taken out together with ascites and aseptically cultured as adapted for RPMI-1640 medium for animal cell culture supplemented with fetal bovine serum (5 v/v %) and ethanolamine (1.2 mg/liter), but devoid of vitamin B12 (cyanocobalamin). Also, 100,000 units of penicillin and 100 mg of streptomycin were added as the antimicrobial agent, per liter of this medium. The L1210 cells grown and adapted in vitro were further adapted to the above-mentioned medium containing 7.0 g/liter of bovine serum albumin in place of the fetal bovine serum, following the method of Fujii et al. (J. Biol. Chem., vol. 256, p. 10329-10334, 1981), and then used for experiment.
# To examine the L1210 growth inhibitory activities of the vitamin B12 derivatives synthesized in Examples 2 and 5, first L1210 cells adapted to albumin were inoculated at a density of 5×10^4 cells/ml into the same medium containing folic acid at 10 μM concentration, and a preculture was carried out under a humidified atmosphere of CO2 /air (5%/95%) at 37° C. for 3 days. The cells grown were centrifuged, then washed twice with the same medium containing no folic acid, to prepare an inoculum cell suspension of about 5×10^6 cells/mi. […]
Molecule,Ki (diol dehydrase [1]) [µM],coenzyme activity (in words) (diol dehydrase [2]),Kcat (coenzyme activity) (diol dehydrase [2]) [s⁻¹],"Kcat, activity relative to the vitamin B12 coenzyme (adenosylcobalamin) (diol dehydrase [2]) [%]",Km (diol dehydrase [3]) [µM],cells found dead (Trypan blue) [4] [%]
"6-(5,6-dimethylbenzimidazolyl)hexyladenosylcobinamide phosphoric acid [Example 9]",38,no coenzyme activity,,,,
3-imidazolylpropyladenosylcobinamide phosphoric acid [Example 10],1,,3,0.9,1.1,
"C/C1=C2/[N-][C@H]([C@H](CC(N)=O)[C@@]2(C)CCC(=O)NC[C@@H](C)OP(=O)([O-])O[C@H]2[C@@H](O)[C@@H](n3cnc4cc(C)c(C)cc43)O[C@@H]2CO)[C@]2(C)N=C(/C(C)=C3N=C(/C=C4N=C1[C@@H](CCC(N)=O)C\4(C)C)[C@@H](CCC(N)=O)[C@]\3(C)CC(N)=O)[C@@H](CCC(N)=O)[C@]2(C)CC(N)=O.[CH2-][C@H]1O[C@@H](n2cnc3c(N)ncnc32)[C@H](O)[C@@H]1O.[Co] [Vitamin B12 coenzyme, adenosylcobalamin, reference compound]",,,337,100,0.8,
"CN(Cc1cnc2nc(N)nc(N)c2n1)c1ccc(C(=O)N[C@@H](CCC(=O)O)C(=O)O)cc1 [MTX, methotrexate]",,,,,,20
"2-(5,6-dimethylbenzimidazolyl)ethyladenosylcobinamide phosphoric acid [Example 6]",52,no coenzyme activity,,,,
"3-(5,6-dimethylbenzimidazolyl)propyladenosylcobinamide phosphoric acid [Example 7]",,,199,59,0.82,
"4-(5,6-dimethylbenzimidazolyl)butyladenosylcobinamide phosphoric acid [Example 8]",,,167,50,11.2,
